Data set [1] can be described thus: Solubility of the compound. The class given is physicochemical.
The target of data set [2] is ELAV-like protein 1 (Homo sapiens) (UniProt Q15717). The data set can be described thus: Binding affinity to HuR (unknown origin) assessed as absolute STD percentage for pyridone moiety by 1H-STD-NMR spectroscopic analysis.
For data set [3] the target is unchanged. The data set can be described thus: Binding affinity to HuR (unknown origin) assessed as absolute STD percentage for isopropyl moiety by 1H-STD-NMR spectroscopic analysis.
The target is the same in data set [4]. Nature of the data set: Binding affinity to HuR (unknown origin) assessed as absolute STD percentage for ring B moiety by 1H-STD-NMR spectroscopic analysis.
Data set [5] has the same target. The data set can be described thus: Binding affinity to HuR (unknown origin) assessed as absolute STD percentage for ring A moiety by 1H-STD-NMR spectroscopic analysis.
The target is the same in data set [6]. The data set can be described thus: Binding affinity to HuR (unknown origin) assessed as absolute STD percentage for protons of the amino chain (H14, H15, and H16) by 1H-STD-NMR spectroscopic analysis.
The target is the same in data set [7]. The data set can be described thus: Binding affinity to HuR (unknown origin) assessed as absolute STD percentage for ring C moiety by 1H-STD-NMR spectroscopic analysis.

In ChEMBL document CHEMBL4339226, “Novel Compounds Targeting the RNA-Binding Protein HuR. Structure-Based Design, Synthesis, and Interaction Studies” (ACS Med Chem Lett, 2019) one finds solubility and Activity data, which are given here for four compounds.

Calls of active or inactive are those of the source. No cut-off for these calls is given here.

Sequence of ELAV-like protein 1 (Homo sapiens) (Q15717 whole entry): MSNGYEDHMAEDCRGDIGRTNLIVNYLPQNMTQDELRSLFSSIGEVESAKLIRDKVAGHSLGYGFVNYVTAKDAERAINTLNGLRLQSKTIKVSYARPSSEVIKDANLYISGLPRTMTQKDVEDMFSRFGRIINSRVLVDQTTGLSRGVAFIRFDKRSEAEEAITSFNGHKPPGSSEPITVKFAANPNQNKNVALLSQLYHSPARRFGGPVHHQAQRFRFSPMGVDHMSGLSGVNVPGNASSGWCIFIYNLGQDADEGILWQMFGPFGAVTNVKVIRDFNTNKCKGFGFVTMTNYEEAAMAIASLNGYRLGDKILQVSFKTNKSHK

Regarding `COc1cc(OC)cc(-c2nc3sccn3c2NCCNC(=O)OCc2ccccc2)c1.Cl`, the solubility result in data set [1] is on record as “Insoluble”.

As to `CC(C)Cn1cnc(-c2cccc(Oc3ccccc3)c2)c1-c1ccc(=O)[nH]c1`, the figures for the Activity in data set [2] and in data set [3] were 1.2% and 0.3%, respectively.

As for `COc1cc(OC)cc([C@@H]2[C@@H](C(=O)NCCNCc3ccccc3)CCC(=O)N2CC(C)C)c1` (racemic), the Activity is 0.03% in data set [4], 0.2% in data set [5] and 0.4% in data set [3]. Also, the outcome in data set [6] was inactive.

Regarding `O=C(c1ccc(O)cc1)N(CCc1cc(O)cc(O)c1)Cc1cccc(Cl)c1`, the Activity in data set [4] turned out to be 0.36%; in data set [5], 0.4%; in data set [7] it was 0.25%.
